Measurements: publication PMC10817493, “p-Terphenyl and Diphenyl Ether Derivatives from the Marine-Derived Fungus Aspergillus candidus HM5-4” (Marine Drugs, 2023)

Assays:
[1] = test system: Neoscytalidium dimidiatum; experiment: Antifungal activity, filter paper disc agar diffusion method; type: cell-based; details: includes 6 mm disc, 10.0 µg/disc (carbendazim 10 μL, 1.0 mg/mL), mean ± SD, triplicate
Method: The antifungal activities of three known compounds (5–7) were determined by the filter paper disc agar diffusion method.
The inhibitory activities of some compounds against six phytopathogenic fungi (Fusarium oxysporum f. sp. cubense, Colletotrichum gloeosporioides, Thielaviopsis paradoxa, Bipolaris cactivora (Petrak) Alcorn, Neoscytalidium dimidiatum, and Colletotrichum scovillei) were evaluated using the filter paper disc agar diffusion method; 250 μL of the fungal solution was aspirated onto the corresponding solid medium and spread evenly with a cotton swab. Samples were dissolved in MeOH to prepare solutions of 1.0 mg/mL and 3.0 mg/mL concentrations. Carbendazim (10 μL, 1.0 mg/mL) was used as a positive control and MeOH (10 μL) was used as negative control. The diameter of the inhibition zones of the plates cultured at 37 °C for 24 h were measured including the 6 mm disc diameter. Experiments were performed in triplicate.

[2] = test system: human myeloid leukemia cells (K562); experiment: Cytotoxic assay (modified MTT), K562; type: cell-based; details: mean ± SD of three parallel experiments
Method: (§1) All the compounds mentioned above were tested for their cytotoxic activities against human myeloid leukemia cells (K562), human liver cancer cells (BEL-7402), human gastric cancer cells (SGC-7901), human non-small cell lung cancer cells (A549) and human HeLa cervical cancer cells. […] Compared to the cytotoxic activity of 7, the cytotoxic activity of 5 was much stronger.
(§2) All above-mentioned compounds were evaluated for their cytotoxicity in five human tumor cell lines: K562, BEL-7402, SGC-7901, A549 and HeLa cells which were bought from the Cell Bank of Type Culture Collection of the Shanghai Institute of Cell Biology, Chinese Academy of Sciences, using modified MTT methods. The details of this are described in our previous paper. The positive control was cisplatin.

[3] = test system: human liver cancer cells (BEL-7402); experiment: Cytotoxic assay (modified MTT), BEL-7402; type: cell-based; details: mean ± SD of three parallel experiments
Method: as §1, §2

[4] = test system: human gastric cancer cells (SGC-7901); experiment: Cytotoxic assay (modified MTT), SGC-7901; type: cell-based; details: mean ± SD of three parallel experiments
Method: as §1, §2

[5] = test system: human non-small cell lung cancer cells (A549); experiment: Cytotoxic assay (modified MTT), A549; type: cell-based; details: mean ± SD of three parallel experiments
Method: as §1, §2

[6] = test system: human HeLa cervical cancer cells; experiment: Cytotoxic assay (modified MTT), HeLa; type: cell-based; details: mean ± SD of three parallel experiments
Method: as §1, §2

α-glucosidase = α-glucosidase (Saccharomyces cerevisiae, UniProt P53341); experiment: α-Glucosidase inhibition assay (PNPG substrate); type: biochemical
Method: All abovementioned compounds were measured for their inhibitory effects against α-glucosidase, using PNPG as the substrate. The enzyme inhibitory assay was carried out by a formerly described method, with some modifications. Compounds were dissolved in DMSO and six concentration gradients were set in turn. All the assays were performed in 0.1 M sodium phosphate buffer (PH = 6.8). The 10 μL sample was mixed with 100 μL α-glucosidase solution (0.2 U/mL, Sigma, Kanagawa, Japan) and shaken well, then added to a 96-well plate and incubated at 37 °C for 15 min. Subsequently, 40 μL of 2.5 mM 4-nitrophenyl-α-D-glucopyranoside was added and further incubated at 37 °C for 15 min. DMSO was used as a control and the blank wells contained buffer in place of substrate. The OD values were tested at 405 nm with a microplate reader. […] The percentage inhibition was calculated by the following equation:% inhibition = ((ODcontrol − ODsample)/(ODcontrol − ODblank)) × 100

[7] = test system: K562, BEL-7402, SGC-7901, A549 and HeLa cells; experiment: Cytotoxic activity, summary over five human tumor cell lines; type: cell-based; details: range over compounds 5 and 7 and K562, BEL-7402, SGC-7901, A549, HeLa, read-out: IC50 values, range over the five cancer cell lines
Source text: Two undescribed p-terphenyl derivatives, asperterphenylcins A–B (1–2), and two undescribed diphenyl ether derivatives, asperdiphenylcins A–B (3–4), together with three previously described p-terphenyl derivatives—4″-deoxyterprenin (5), terphenyllin (6), and 3″-hydroxyterphenyllin (7)—were obtained from the solid-rice culture of the marine-derived fungus Aspergillus candidus HM5-4, which was isolated from sponges from the South China Sea. Their structures were elucidated by HRESIMS data and NMR spectroscopic analysis.
as §2

[8] = Homo sapiens, Bel-7402, BEL-7402 cells
[9] = Homo sapiens, SGC-7901, SGC-7901 cells

Chain of α-glucosidase (P53341 whole entry): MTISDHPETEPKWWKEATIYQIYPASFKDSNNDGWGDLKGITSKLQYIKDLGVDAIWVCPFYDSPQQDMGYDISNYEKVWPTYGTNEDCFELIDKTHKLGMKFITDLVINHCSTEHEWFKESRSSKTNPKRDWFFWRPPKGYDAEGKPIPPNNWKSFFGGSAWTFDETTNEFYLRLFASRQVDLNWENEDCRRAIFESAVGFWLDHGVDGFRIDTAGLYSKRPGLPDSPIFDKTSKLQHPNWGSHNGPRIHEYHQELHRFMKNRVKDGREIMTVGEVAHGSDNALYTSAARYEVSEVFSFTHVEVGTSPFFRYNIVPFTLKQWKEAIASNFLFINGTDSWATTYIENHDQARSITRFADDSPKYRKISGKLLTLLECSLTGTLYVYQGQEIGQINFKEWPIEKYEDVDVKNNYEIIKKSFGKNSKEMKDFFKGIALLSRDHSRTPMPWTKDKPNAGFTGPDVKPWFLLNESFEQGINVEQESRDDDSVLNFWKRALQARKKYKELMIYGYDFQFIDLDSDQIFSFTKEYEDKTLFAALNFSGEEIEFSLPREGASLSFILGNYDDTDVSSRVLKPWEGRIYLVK

Row | SMILES | diameter of inhibition zone against N. dimidiatum [1] [mm] | IC50 [2] [µM] | IC50 ([3]; BEL-7402 cells) [µM] | IC50 ([4]; SGC-7901 cells) [µM] | IC50 ([5]; A549 cells) [nM] | IC50 [6] [µM] | IC50 ([2]; Homo sapiens) | IC50 [3, 8] | IC50 [4, 9] | IC50 ([5]; Homo sapiens, A549, A549 cells) | IC50 ([6]; Homo sapiens) | α-glucosidase inhibitory activity (in words) (α-glucosidase) | IC50 [7] [µM]
1 | COC(=O)Nc1nc2ccccc2[nH]1 [Carbendazim, reference compound] | 55.00 ± 0.82 | – | – | – | – | – | – | – | – | – | – | – | –
2 | N.N.[Cl][Pt][Cl] [Cisplatin, cisplatin, reference compound] | – | 3.08 ± 0.05 | 4.02 ± 0.06 | 4.11 ± 0.02 | 1930 ± 20 | 11.3 ± 0.15 | – | – | – | – | – | – | –
3 | COc1ccc(O)c(-c2c(OC)cc(-c3ccc(O)cc3)c(OC)c2O)c1 [Compound 1, Asperterphenylcin A] | – | – | – | – | – | – | > 20 µg/mL | > 20 µg/mL | > 20 µg/mL | > 20 µg/mL | > 20 µg/mL | – | –
4 | COc1c(-c2ccc(O)cc2)cc(O)c(-c2ccc(O)cc2)c1OC [Compound 2, Asperterphenylcin B] | – | – | – | – | – | – | > 20 µg/mL | > 20 µg/mL | > 20 µg/mL | > 20 µg/mL | > 20 µg/mL | – | –
5 | COc1cccc2c1C(=O)OCc1cc(COC(C)=O)cc(O)c1O2 [Compound 3, Asperdiphenylcin A] | – | – | – | – | – | – | > 20 µg/mL | > 20 µg/mL | > 20 µg/mL | > 20 µg/mL | > 20 µg/mL | no α-glucosidase inhibitory activity | –
6 | COc1cccc2c1C(=O)OCc1cc(C(=O)O)cc(O)c1O2 [Compound 4, Asperdiphenylcin B] | – | – | – | – | – | – | > 20 µg/mL | > 20 µg/mL | > 20 µg/mL | > 20 µg/mL | > 20 µg/mL | no α-glucosidase inhibitory activity | –
7 | COc1cc(-c2ccccc2)c(OC)c(O)c1-c1ccc(OCC=C(C)C)c(O)c1 [Compound 5, 4″-deoxyterprenin] | 31.67 ± 2.36 | – | – | – | – | – | 15.03 ± 0.14 µM | 6.69 ± 0.12 µM | 3.67 ± 0.17 µM | 3320 ± 100 nM | 44.77 ± 0.13 µM | completely disappeared | 3.32 to 60.4
8 | COc1cc(-c2ccc(O)cc2)c(OC)c(O)c1-c1ccc(O)cc1 [Compound 6, terphenyllin] | – | – | – | – | – | – | > 20 µg/mL | > 20 µg/mL | > 20 µg/mL | > 20 µg/mL | > 20 µg/mL | – | –
9 | COc1cc(-c2ccc(O)c(O)c2)c(OC)c(O)c1-c1ccc(O)cc1 [Compound 7, 3″-hydroxyterphenyllin] | – | – | – | – | – | – | 34 ± 0.4 µM | – | – | – | 53.6 ± 0.73 µM | – | 3.32 to 60.4
